From ChEMBL document CHEMBL1133043, “Potent inhibition of retinoic acid metabolism enzyme(s) by novel azolyl retinoids” (Bioorg Med Chem Lett, 2000)

System: Cricetinae gen. sp.
Assay: The compound was tested for the inhibition of all-trans retinoic acid (ATRA) catabolism using 7.27 pmol [11,12-3H]-ATRA as substrate in microsomal preparations of male hamster liver fortified with NADPH
Format: functional

Compound | IC50
CC1=C(/C=C/C(C)=C/C=C/C(C)=C/C(=O)O)C(C)(C)CCC1n1cncn1 (stereo not given) | 880 nM
COC(=O)/C=C(C)/C=C/C=C(C)/C=C/C1=C(C)C(n2cncn2)CCC1(C)C (stereo not given) | 680 nM
CC(=O)N1CCN(c2ccc(OC[C@H]3CO[C@](Cn4ccnc4)(c4ccc(Cl)cc4Cl)O3)cc2)CC1 [KETOCONAZOLE] | 34000 nM

Now from value to molecule:

IC50 | Compound
1620 nM | CC1=C(/C=C/C(C)=C/C=C/C(C)=C/C(=O)O)C(C)(C)CCC1n1cnnc1 (stereo not given)
100 nM | CC1=C(/C=C/C(C)=C/C=C/C(C)=C/C(=O)O)C(C)(C)CCC1n1ccnc1 (stereo not given)
